Experimental data published in article PMC10597491 (PLOS ONE, 2023).
Bridge positions count the residues as written; N and C are the ends. Ends that are not written are not given here.

Key:
Assay type in all cases: cell-based
[1] = system: rested human CD8+ T-cells; test: IL-7Rα (CD127) internalization assay
Protocol: In previous studies, the decline of IL-7Rα on the surface of IL-7-treated CD8+ cells was reported to proceed with approximately linear kinetics, reaching ~80% disappearance of receptor over 6 hours at 37°C [49]. […] Surface IL-7R was pre-loaded with saturating concentrations of the agonists on ice and shifted to 37°C to allow internalization, then shifted back to ice to stop internalization. […] A parallel assay with all incubations held on ice for the duration of the time course was also run.
Fig 8 Test compounds induce decrease in cell surface IL-7Rα. […] Following timed incubations, the samples were stained, fixed, and analyzed by flow cytometry; and data was collected as median fluorescence intensity (MFI), as detailed in Methods. […] The primary flow data (MFI) is shown in S3 Fig.
CD8+ cells isolated by negative selection from PBMCs with Stem Cell Technology Easy Sep CD8+ kit, or obtained freshly prepared from Stanford Blood Center, were rested overnight in RPMI 1640 containing Pen/Strep, L-Glutamine and 20% FBS; then resuspended to 7.0 x10^6 cells/mL. […] To determine levels of cell surface IL-7Rα, analysis was performed by flow cytometry to determine median fluorescence intensity (MFI) of cells at each condition. […]

human naive CD8+ T-cells = test: pSTAT5 ELISA in isolated naive CD8+ T-cells; conditions: for EC50: rested naive CD8+ T-cells, 15 min exposure, pSTAT5 ELISA
Protocol: (§1) We first assessed induction kinetics over a time course of compound exposure. Saturating concentrations of each of the compounds, previously determined to elicit maximum response of pSTAT5 signaling, were applied to the cells and pSTAT5 levels monitored for up to 2 hours. The resulting time-response profiles served to compare the kinetics of signal induction for the different compounds, and to determine Tmax for correct time of exposure in subsequent dose response determinations for each compound. In these studies, IL-7-induced pSTAT5 accumulation rose rapidly to a maximum by 15 to 30 minutes, then declined slowly for the remainder of the time course.
(§2) Naive CD4+ and CD8+ T-cells, were separately isolated by negative selection from PBMCs, and rested overnight prior to compound exposure.
(§3) For preparation of lymphocyte subsets, naïve CD4+ T-cells were isolated via two-stage negative selection with EasySep™ Human Naïve CD4+ T-Cell Isolation Kit II (Stemcell Technologies Cat# 17555); and CD8+ T-cells were isolated by negative selection from PBMCs with Stem Cell Technology Easy Sep CD8+ kit, or obtained freshly prepared from Stanford Blood Center. Rested naïve CD4+ T-cells or CD8+ T-cells were prepared by overnight incubation at 37°C, 5% CO2 in CTS™ OpTmizer™ T-Cell Expansion SFM (ThermoFisher Scientific Cat# A1048501).
(§4) Cells were deprived of growth factors by overnight incubation at 5×10^5 cells/mL in starvation medium (RPMI 1640 + 4.5 g/L glucose + 0.2% FBS + 2 mM L-glutamine + 1 mM NaPyr + 10 mM HEPES + 0.5x penicillin-streptomycin with no cytokine supplement) in T75 flasks. For assays, cells were plated in 96-well V-bottom plates at 2×10^5 cells/well. […] Following incubation, cell extracts were prepared by adding a mixture of 10x Cell Lysis Buffer (Cell Signaling Technology Cat# 9803) and 100x HALT Phosphatase and Protease Inhibitor Cocktail (Thermo Fisher Cat# 78442) directly to the wells. The plates were agitated at 25°C for 5 min to prepare cell extracts for immediate use or to be stored at -80°C until assay. […]

human naive CD4+ T-cells = test: pSTAT5 ELISA in isolated naive CD4+ T-cells; conditions: for EC50: rested naive CD4+ T-cells, 15 min exposure, pSTAT5 ELISA
Protocol: as §1, §2, §3, §4

Substance | rate of surface decline of IL-7Rα ([1]; 1 μM, 37°C) | agonist efficacy, CD8+ (human naive CD8+ T-cells; dose response at 15 min) | EC50 (human naive CD8+ T-cells) | agonist efficacy, CD4+ (human naive CD4+ T-cells; dose response at 15 min) | EC50 (human naive CD4+ T-cells) | loss of IL-7Rα surface density ([1]; 6 hours at 37°C, 10 nM IL-7)
Ac-GWGIPWCTLDPGSLQCAWLGKHGGGGSGGVVCQDWEGVELCWQGG (disulfide 7-16, 32-41) [MDK1472] | tracked very closely with that induced by IL-7 | full agonists | 0.35 nM | full agonists | 1.3 nM | –
IL-7: human IL-7 cytokine (Peprotech) | – | – | 0.0028 nM | – | 0.0025 nM | 60%
